Measured values as given in ChEMBL document CHEMBL1201862, “PubChem BioAssay data set” (2004).
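Protocol summary: plate cells (96-well), add compound at 5 concentrations, incubate 48 h, interpolate endpoints linearly. GI50: concentration for 50% inhibition of growth.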 The source made the active and inactive calls. Cut-off read from the data, not from the text of the source: active = GI50 up to about 1.1 µM and inactive = higher.

Legend:
Assay in all cases: NCI tumour cell line growth inhibition, 48 h
EKVX = system: EKVX
Malme-3M = system: Malme-3M
COLO 205 = system: COLO 205
SK-MEL-2 = system: SK-MEL-2
A549 = system: A549
CAKI-1 = system: CAKI-1
OVCAR-4 = system: OVCAR-4
NCI-H226 = system: NCI-H226
SK-MEL-28 = system: SK-MEL-28
SK-MEL-5 = system: SK-MEL-5
DU-145 = system: DU-145
OVCAR-8 = system: OVCAR-8
UO-31 = system: UO-31
UACC-62 = system: UACC-62
786-0 = system: 786-0
HOP-62 = system: HOP-62
MDA-N = system: MDA-N
SF-268 = system: SF-268
HCT-15 = system: HCT-15
HCT-116 = system: HCT-116

Structure (SMILES) | GI50 (EKVX) | GI50 (Malme-3M) | GI50 (COLO 205) | GI50 (SK-MEL-2) | GI50 (A549) | GI50 (CAKI-1) | GI50 (OVCAR-4) | GI50 (NCI-H226) | GI50 (SK-MEL-28) | GI50 (SK-MEL-5) | GI50 (DU-145) | GI50 (OVCAR-8) | GI50 (UO-31) | GI50 (UACC-62) | GI50 (786-0) | GI50 (HOP-62) | GI50 (MDA-N) | GI50 (SF-268) | GI50 (HCT-15) | GI50 (HCT-116)
CC1(C)Oc2ccc3ccc(=O)oc3c2C(O)C1O (stereo not given) | 48.1 µM (inactive) | 40.3 µM (inactive) | 21.8 µM (inactive) | > 100 µM (inactive) | 32.2 µM (inactive) | 67.1 µM (inactive) | 39.5 µM (inactive) | 48.3 µM (inactive) | 37.5 µM (inactive) | 15.9 µM (inactive) | 55.8 µM (inactive) | 34 µM (inactive) | 27.5 µM (inactive) | 8.39 µM (inactive) | 45 µM (inactive) | 36.1 µM (inactive) | 35.1 µM (inactive) | 40.6 µM (inactive) | 41.9 µM | 38.8 µM (inactive)
Cc1cc(O)nc2cc3oc4ccccc4c3cc12 | 0.0448 µM (active) | > 30.1 µM (inactive) | 16.7 µM (inactive) | > 100 µM (inactive) | 7.64 µM (inactive) | > 100 µM (inactive) | > 62.2 µM (inactive) | 15.7 µM (inactive) | > 100 µM (inactive) | 7.52 µM (inactive) | > 100 µM (inactive) | > 100 µM (inactive) | > 27.5 µM (inactive) | 17.5 µM (inactive) | 25.2 µM (inactive) | > 100 µM (inactive) | > 100 µM (inactive) | 28.1 µM (inactive) | > 61.2 µM | 27.5 µM (inactive)
Cc1ccc(/C=N/Nc2nncc3ccccc23)s1 | > 100 µM (inactive) | > 75.9 µM (inactive) | > 100 µM (inactive) | > 95.3 µM (inactive) | > 100 µM (inactive) | > 100 µM (inactive) | 26.3 µM (inactive) | > 69.2 µM (inactive) | > 100 µM (inactive) | > 100 µM (inactive) | > 31.6 µM (inactive) | 65.2 µM (inactive) | > 100 µM (inactive) | > 52.1 µM (inactive) | > 52.2 µM (inactive) | > 46.7 µM (inactive) | > 61.4 µM (inactive) | > 58.1 µM (inactive) | > 100 µM | 59.6 µM (inactive)
N#Cc1ncn(CCO)c1N | > 100 µM (inactive) | > 100 µM (inactive) | > 100 µM (inactive) | > 100 µM (inactive) | > 100 µM (inactive) | > 100 µM (inactive) | > 100 µM (inactive) | > 100 µM (inactive) | > 100 µM (inactive) | > 100 µM (inactive) | > 100 µM (inactive) | > 100 µM (inactive) | > 100 µM (inactive) | > 100 µM (inactive) | > 100 µM (inactive) | > 100 µM (inactive) | > 100 µM (inactive) | > 100 µM (inactive) | > 100 µM | > 100 µM (inactive)
NC(C(F)(F)F)(C(F)(F)F)P(=O)(c1ccccc1)c1ccccc1 | > 100 µM (inactive) | > 100 µM (inactive) | > 100 µM (inactive) | > 100 µM (inactive) | > 100 µM (inactive) | > 100 µM (inactive) | > 100 µM (inactive) | > 100 µM (inactive) | > 100 µM (inactive) | > 100 µM (inactive) | > 100 µM (inactive) | > 100 µM (inactive) | > 100 µM (inactive) | > 100 µM (inactive) | > 100 µM (inactive) | > 100 µM (inactive) | > 100 µM (inactive) | > 100 µM (inactive) | > 100 µM | > 100 µM (inactive)
CCC(C)[C@H](NC(=O)[C@H](Cc1ccccc1)NC(=O)N(CC)c1ccccc1)C(=O)N[C@@H](CC(C)C)C(=O)OC (stereo not given in full) | 49.3 µM (inactive) | 31 µM (inactive) | 60.1 µM (inactive) | 36.6 µM (inactive) | 52.5 µM (inactive) | 58.5 µM (inactive) | 94.4 µM (inactive) | 18 µM (inactive) | 40.3 µM (inactive) | 26.7 µM (inactive) | 33.9 µM (inactive) | 34 µM (inactive) | 24.3 µM (inactive) | 48 µM (inactive) | 40.6 µM (inactive) | 33 µM (inactive) | 45.1 µM (inactive) | 36.5 µM (inactive) | 38.6 µM | 32.4 µM (inactive)
CC(C)(C)OC(=O)NCCCCC(NC(=O)c1ccccc1)C(N)=O (stereo not given) | > 100 µM (inactive) | > 100 µM (inactive) | > 100 µM (inactive) | > 100 µM (inactive) | > 100 µM (inactive) | > 100 µM (inactive) | > 100 µM (inactive) | > 10 µM (inactive) | > 100 µM (inactive) | > 100 µM (inactive) | > 100 µM (inactive) | > 100 µM (inactive) | > 100 µM (inactive) | 71.9 µM (inactive) | > 100 µM (inactive) | > 100 µM (inactive) | > 100 µM (inactive) | > 100 µM (inactive) | > 100 µM | > 100 µM (inactive)
Nc1cccc(C2CCCc3c2[nH]c2ccccc32)c1 (stereo not given) | 18.5 µM (inactive) | 18.1 µM (inactive) | 19.8 µM (inactive) | 17.5 µM (inactive) | 17.5 µM (inactive) | 23.9 µM (inactive) | 25.5 µM (inactive) | 25.7 µM (inactive) | 26.5 µM (inactive) | 17.4 µM (inactive) | 27 µM (inactive) | 17.7 µM (inactive) | 26 µM (inactive) | 15.6 µM (inactive) | 18.2 µM (inactive) | 30.5 µM (inactive) | 17.5 µM (inactive) | 17.2 µM (inactive) | 8.28 µM | 13.4 µM (inactive)
[N-]=[N+]=Nc1ccc2c(c1)Sc1ccccc1N2CCCCN1CCN(C(=O)CCNC(=O)Cc2ccc(C(=O)c3ccccc3)cc2)CC1 | 3.18 µM (inactive) | 5.2 µM (inactive) | 3.39 µM (inactive) | 4.29 µM (inactive) | 4.52 µM (inactive) | 8.61 µM (inactive) | 3.48 µM (inactive) | 13.6 µM (inactive) | 4.81 µM (inactive) | 2.11 µM (inactive) | 4.93 µM (inactive) | 7.03 µM (inactive) | 5.32 µM (inactive) | 6.05 µM (inactive) | 3.76 µM (inactive) | 8.45 µM (inactive) | 3.75 µM (inactive) | 3.84 µM (inactive) | 2.64 µM | 3.54 µM (inactive)
COc1ccc(C(OCC2OC(n3ccc(NC(=O)c4ccccc4)nc3=O)C(O)C2O)(c2ccccc2)c2ccccc2)cc1 (stereo not given) | 2.72 µM (inactive) | 1.89 µM (inactive) | 2 µM (inactive) | 3.33 µM (inactive) | 4.06 µM (inactive) | 2.93 µM (inactive) | 2.67 µM (inactive) | 2.61 µM (inactive) | 2.72 µM (inactive) | 1.91 µM (inactive) | 3.37 µM (inactive) | 1.78 µM (inactive) | 3.42 µM (inactive) | 8.26 µM (inactive) | 2.12 µM (inactive) | 2.34 µM (inactive) | 1.92 µM (inactive) | 5.18 µM (inactive) | 1.82 µM | 1.75 µM (inactive)
N#CC1(c2ccccc2)CCN(C2(c3ccccc3)CCCCC2)CC1 | > 100 µM (inactive) | 8.83 µM (inactive) | > 100 µM (inactive) | > 100 µM (inactive) | > 100 µM (inactive) | > 100 µM (inactive) | > 100 µM (inactive) | > 100 µM (inactive) | > 100 µM (inactive) | > 100 µM (inactive) | > 100 µM (inactive) | > 100 µM (inactive) | > 100 µM (inactive) | > 100 µM (inactive) | 94.2 µM (inactive) | > 100 µM (inactive) | > 100 µM (inactive) | > 100 µM (inactive) | > 100 µM | > 100 µM (inactive)
CN1CCCOC(c2ccc(Cl)cc2)O1 (stereo not given) | > 100 µM (inactive) | > 100 µM (inactive) | > 100 µM (inactive) | > 100 µM (inactive) | > 100 µM (inactive) | > 100 µM (inactive) | > 100 µM (inactive) | > 100 µM (inactive) | > 100 µM (inactive) | > 100 µM (inactive) | > 100 µM (inactive) | > 100 µM (inactive) | > 100 µM (inactive) | > 100 µM (inactive) | > 100 µM (inactive) | > 100 µM (inactive) | > 100 µM (inactive) | > 100 µM (inactive) | > 100 µM | > 100 µM (inactive)
O=C1CC(Nc2ccccc2)c2c(Cl)sc(Cl)c21 (stereo not given) | 1.76 µM (inactive) | 1.42 µM (inactive) | 0.906 µM (active) | 1.89 µM (inactive) | 2.05 µM (inactive) | 0.65 µM (active) | 2.01 µM (inactive) | 8.65 µM (inactive) | 1.86 µM (inactive) | 4.66 µM (inactive) | 1.6 µM (inactive) | 1.4 µM (inactive) | 1.11 µM (active) | 1.32 µM (inactive) | 0.234 µM (active) | 2.57 µM (inactive) | 1.65 µM (inactive) | 0.778 µM (active) | 0.767 µM | 1.19 µM (inactive)
O=C(COc1ccc(OCC(=O)N2C(=O)CN(c3ccccc3)C2=S)cc1)N1C(=O)CN(c2ccccc2)C1=S | > 53.6 µM (inactive) | > 25 µM (inactive) | > 100 µM (inactive) | > 51.4 µM (inactive) | > 56.1 µM (inactive) | > 57.7 µM (inactive) | 31.5 µM (inactive) | > 100 µM (inactive) | > 100 µM (inactive) | > 25 µM (inactive) | > 61 µM (inactive) | > 55.2 µM (inactive) | > 56.6 µM (inactive) | > 56.1 µM (inactive) | > 57 µM (inactive) | > 53.2 µM (inactive) | > 63.1 µM (inactive) | > 59.4 µM (inactive) | > 54.1 µM | > 61.4 µM (inactive)
